Inconclusive results and toxic doses are left out. Rule as the data show it: active = T/C of 150% or more; inactive = T/C below 125%.
Tested on: L1210 leukemia ip in BDF1 mice, survival T/C
Assay: NCI In Vivo Anticancer Drug Screen. Data for tumor model L1210 Leukemia (intraperitoneal) in B6D2F1 (BDF1) mice
Details: endpoint: mean survival time, higher = longer survival
How it was run: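 Each compound was tested against a transplantable tumor grown in mice. The endpoint was survival, with treated animals benchmarked against vehicle controls as a simple ratio.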

[1] = dose: 100.0 mg/kg/injection, schedule: Q01DX001 (ip), vehicle: saline
[2] = dose: 200.0 mg/kg/injection, schedule: Q01DX001 (ip), vehicle: saline
[3] = dose: 400.0 mg/kg/injection, schedule: Q01DX001 (ip), vehicle: saline
[4] = dose: 100.0 mg/kg/injection, schedule: Q04DX003 (ip), vehicle: Klucel (hydroxypropylcellulose) (HPC)
[5] = dose: 200.0 mg/kg/injection, schedule: Q04DX003 (ip), vehicle: Klucel (hydroxypropylcellulose) (HPC)
[6] = dose: 400.0 mg/kg/injection, schedule: Q04DX003 (ip), vehicle: Klucel (hydroxypropylcellulose) (HPC)
[7] = dose: 100.0 mg/kg/injection, schedule: Q01DX009 (ip), vehicle: Klucel (hydroxypropylcellulose) (HPC)
[8] = dose: 200.0 mg/kg/injection, schedule: Q01DX009 (ip), vehicle: Klucel (hydroxypropylcellulose) (HPC)
[9] = dose: 400.0 mg/kg/injection, schedule: Q01DX009 (ip), vehicle: Klucel (hydroxypropylcellulose) (HPC)
[10] = dose: 100.0 mg/kg/injection, schedule: Q04DX003 (ip), vehicle: saline
[11] = dose: 200.0 mg/kg/injection, schedule: Q04DX003 (ip), vehicle: saline
[12] = dose: 400.0 mg/kg/injection, schedule: Q04DX003 (ip), vehicle: saline

Measured: T/C

CCOc1ccn(C2OC(COC(C)=O)C(OC3OC(COC(C)=O)C(OC(C)=O)C(OC(C)=O)C3OC(C)=O)C(OC(C)=O)C2OC(C)=O)c(=O)n1 (stereo not given)
inactive: dose: 22.5 mg/kg/injection, schedule: Q01DX001 (ip), vehicle: carboxymethylcellulose (CMC) 120 % of control | dose: 45.0 mg/kg/injection, schedule: Q01DX001 (ip), vehicle: carboxymethylcellulose (CMC) 103 % of control | dose: 90.0 mg/kg/injection, schedule: Q01DX001 (ip), vehicle: carboxymethylcellulose (CMC) 100 % of control | dose: 180.0 mg/kg/injection, schedule: Q01DX001 (ip), vehicle: carboxymethylcellulose (CMC) 100 % of control

O=c1ccn(C2CCCO2)c(=O)[nH]1 (stereo not given)
inactive: dose: 50.0 mg/kg/injection, schedule: Q01DX001 (ip), vehicle: saline 105 % of control | [1] 109 % of control | [2] 100 % of control | [3] 103 % of control

Cc1ccc(S(=O)(=O)OCC2C3CCC(C4CCC43)C2COS(=O)(=O)c2ccc(C)cc2)cc1 (stereo not given)
inactive: [4] 96 % of control | [5] 93 % of control | [6] 91 % of control

NC(=O)c1ccccc1OCc1ccccc1
inactive: dose: 75.0 mg/kg/injection, schedule: Q04DX003 (ip), vehicle: Klucel (hydroxypropylcellulose) (HPC) 97 % of control | dose: 150.0 mg/kg/injection, schedule: Q04DX003 (ip), vehicle: Klucel (hydroxypropylcellulose) (HPC) 99 % of control | dose: 300.0 mg/kg/injection, schedule: Q04DX003 (ip), vehicle: Klucel (hydroxypropylcellulose) (HPC) 91 % of control

CCCOC(C)CC(c1ccccc1)(c1ccccc1)c1ccccc1 (stereo not given)
inactive: dose: 12.5 mg/kg/injection, schedule: Q01DX009 (ip), vehicle: saline with Tween-80 98 % of control | dose: 25.0 mg/kg/injection, schedule: Q01DX009 (ip), vehicle: saline with Tween-80 95 % of control | dose: 50.0 mg/kg/injection, schedule: Q01DX009 (ip), vehicle: saline with Tween-80 91 % of control | dose: 200.0 mg/kg/injection, schedule: Q01DX009 (ip), vehicle: saline with Tween-80 90 % of control

CCCCCCCCCCCCCCCCC1(CC)NC(=O)NC1=O (stereo not given)
inactive: [4] 95 % of control | [5] 93 % of control | [6] 96 % of control

CC(C)=C(CSC#N)S(=O)(=O)c1ccc(C)cc1
inactive: dose: 3.12 mg/kg/injection, schedule: Q01DX009 (ip), vehicle: Klucel (hydroxypropylcellulose) (HPC) 103 % of control | dose: 6.25 mg/kg/injection, schedule: Q01DX009 (ip), vehicle: Klucel (hydroxypropylcellulose) (HPC) 101 % of control | dose: 12.5 mg/kg/injection, schedule: Q01DX009 (ip), vehicle: Klucel (hydroxypropylcellulose) (HPC) 97 % of control

NC1=C(c2ccccc2)C(=O)c2ccccc21
inactive: [7] 107 % of control | [4] 106 % of control | [8] 86 % of control | [5] 95 % of control | [9] 96 % of control | [6] 90 % of control

O=C1C=CC(CCCCCn2ccc(=O)[nH]c2=O)C(=O)N1 (stereo not given)
inactive: [10] 105 % of control | [11] 96 % of control | [12] 97 % of control

Oc1ccc2ccccc2c1CN1CCCCC1
inactive: dose: 75.0 mg/kg/injection, schedule: Q01DX009 (ip), vehicle: saline 92 % of control | [10] 90 % of control | dose: 150.0 mg/kg/injection, schedule: Q01DX009 (ip), vehicle: saline 95 % of control | [11] 101 % of control | dose: 300.0 mg/kg/injection, schedule: Q01DX009 (ip), vehicle: saline 89 % of control | [12] 106 % of control

COC1OC(CN2C(=O)c3ccccc3C2=O)C2OC(C)(C)OC12 (stereo not given)
inactive: dose: 100.0 mg/kg/injection, schedule: Q04DX003 (ip), vehicle: saline with Tween-80 106 % of control | dose: 200.0 mg/kg/injection, schedule: Q04DX003 (ip), vehicle: saline with Tween-80 97 % of control | dose: 400.0 mg/kg/injection, schedule: Q04DX003 (ip), vehicle: saline with Tween-80 96 % of control

Cc1cccc(C)c1C1CC1S(=O)(=O)c1ccccc1 (stereo not given)
inactive: [1] 101 % of control | [10] 100 % of control | [2] 98 % of control | [11] 94 % of control | [3] 111 % of control | [12] 104 % of control

CN(C)Cc1c[nH]c2ncccc12
inactive: dose: 6.25 mg/kg/injection, schedule: Q04DX003 (ip), vehicle: saline with Tween-80 98 % of control | dose: 12.5 mg/kg/injection, schedule: Q04DX003 (ip), vehicle: saline with Tween-80 96 % of control | dose: 25.0 mg/kg/injection, schedule: Q04DX003 (ip), vehicle: saline with Tween-80 102 % of control

COc1ccccc1NC(=O)C(C(C)=O)C(c1cccc([N+](=O)[O-])c1)C(C(C)=O)C(=O)Nc1ccccc1OC (stereo not given)
inactive: [1] 96 % of control | [2] 96 % of control | [3] 89 % of control

NC(=S)N/N=C/c1cccn1Cc1cc2c(cc1[N+](=O)[O-])OCO2
inactive: dose: 25.0 mg/kg/injection, schedule: Q04DX002 (ip), vehicle: Klucel (hydroxypropylcellulose) (HPC) 100 % of control | dose: 50.0 mg/kg/injection, schedule: Q04DX002 (ip), vehicle: Klucel (hydroxypropylcellulose) (HPC) 96 % of control | dose: 100.0 mg/kg/injection, schedule: Q04DX002 (ip), vehicle: Klucel (hydroxypropylcellulose) (HPC) 104 % of control

CC(C)CC(NC(=O)C1(N)C2CC3CC(C2)CC1C3)C(=O)O (stereo not given)
inactive: dose: 22.5 mg/kg/injection, schedule: Q01DX009 (ip), vehicle: Klucel (hydroxypropylcellulose) (HPC) 100 % of control | dose: 45.0 mg/kg/injection, schedule: Q01DX009 (ip), vehicle: Klucel (hydroxypropylcellulose) (HPC) 103 % of control | dose: 90.0 mg/kg/injection, schedule: Q01DX009 (ip), vehicle: Klucel (hydroxypropylcellulose) (HPC) 97 % of control | [7] 108 % of control | [8] 107 % of control | [9] 100 % of control

C[C@]12CCC(=O)C=C1CC[C@@H]1[C@@H]2CC[C@@]2(C)[C@H]1CC[C@]2(C)O
inactive: dose: 100.0 mg/kg/injection, schedule: Q04DX003 (sc), vehicle: steriod suspending solution 95 % of control | dose: 200.0 mg/kg/injection, schedule: Q04DX003 (sc), vehicle: steriod suspending solution 102 % of control | dose: 400.0 mg/kg/injection, schedule: Q04DX003 (sc), vehicle: steriod suspending solution 97 % of control

CCN(CC)Cc1cc(-n2cnc3c(Cl)ncnc32)ccc1O
inactive: dose: 6.25 mg/kg/injection, schedule: Q04DX003 (ip), vehicle: saline 101 % of control | dose: 12.5 mg/kg/injection, schedule: Q04DX003 (ip), vehicle: saline 103 % of control | dose: 25.0 mg/kg/injection, schedule: Q04DX003 (ip), vehicle: saline 96 % of control

c1ccc2cc(-c3cc4ccccc4s3)ccc2c1
inactive: [1] 106 % of control | dose: 100.0 mg/kg/injection, schedule: Q01DX009 (ip), vehicle: acetone 98 % of control | dose: 100.0 mg/kg/injection, schedule: Q04DX003 (ip), vehicle: acetone 100 % of control | [2] 103 % of control | dose: 200.0 mg/kg/injection, schedule: Q01DX009 (ip), vehicle: acetone 104 % of control | dose: 200.0 mg/kg/injection, schedule: Q04DX003 (ip), vehicle: acetone 98 % of control | dose: 264.0 mg/kg/injection, schedule: Q01DX009 (ip), vehicle: saline 110 % of control | [3] 104 % of control | dose: 400.0 mg/kg/injection, schedule: Q01DX009 (ip), vehicle: saline 115 % of control | dose: 400.0 mg/kg/injection, schedule: Q04DX003 (ip), vehicle: acetone 90 % of control

O=c1ccc2cccc(O)c2[nH]1
inactive: [1] 97 % of control | [2] 94 % of control | [3] 100 % of control

CC1(C)CC(=O)C=C(NC2CCCCC2)C1
inactive: dose: 50.0 mg/kg/injection, schedule: Q01DX009 (ip), vehicle: saline sonified 94 % of control | dose: 100.0 mg/kg/injection, schedule: Q01DX009 (ip), vehicle: saline sonified 103 % of control | [4] 96 % of control | dose: 200.0 mg/kg/injection, schedule: Q01DX009 (ip), vehicle: saline sonified 92 % of control | [5] 98 % of control

CCOP(=S)(N/N=C1/CCCC(C)C1)OCC (stereo not given)
inactive: dose: 100.0 mg/kg/injection, schedule: Q01DX001 (ip), vehicle: carboxymethylcellulose (CMC) 93 % of control | dose: 200.0 mg/kg/injection, schedule: Q01DX001 (ip), vehicle: carboxymethylcellulose (CMC) 93 % of control | dose: 400.0 mg/kg/injection, schedule: Q01DX001 (ip), vehicle: carboxymethylcellulose (CMC) 97 % of control
